The values that follow come from article PMC7692337, “Masked Phenolic-Selenium Conjugates: Potent and Selective Antiproliferative Agents Overcoming P-gp Resistance” (Pharmaceuticals, 2020).

Like-named read-outs stand apart in the source and are kept apart here.

One series has as its system BJ-hTert (fibroblasts). The series can be described thus: Antiproliferative activity on non-tumour cells, NCI protocol. It is filed as cell-based, human. Conditions: Homo sapiens, Fibroblast, read-out: GI50 BJ-hTert (Fibroblasts). On the procedure:
(§1) Organochalcogen derivatives prepared herein were evaluated in vitro as potential antiproliferative agents, using a panel of six human tumour cell lines: A549 (non-small cell lung), HBL-100 (breast), HeLa (cervix), SW1573 (non-small cell lung), as drug sensitive lines, T-47D (breast) and WiDr (colon) as drug resistant lines. In addition to precursors 2, 6, 7, 13, 14, 17, 19, ebselen and cisplatin (CDDP) were used as reference drugs. […] In both cases, the NCI protocol, with minor modifications, was followed; selected data, including the selectivity index (S.I.) can be found in Table 3 and full data in Supporting Information (Table S1).
(§2) The in vitro antiproliferative activity was assayed using minor modifications of the protocol of the National Cancer Institute (NCI) of the United States against the six human solid tumor cell and the non-tumor cell lines tested.

Series [1] concerns six human tumour cell lines (A549, HBL-100, HeLa, SW1573, T-47D, WiDr). The series can be described thus: Antiproliferative activity, panel of six human tumour cell lines. The settings on record: for GI50: Homo sapiens, read-out: GI50 over the tumour cell lines (range, bound or words). Format: cell-based. The method, then: as §1, §2
A further series deals with SW1573. Kind of series: P-glycoprotein assay, wild type line. Conditions: Homo sapiens, 48 h exposure. Format: cell-based. The method, then: (§3) This assay allows prediction of whether a certain chemotherapeutic agent could develop chemoresistance when behaving as a P-gp substrate, one of the most common efllux-pumps used for the extrusion of cell xenobiotics. For that purpose, a cell line-based assay was used, in particular the lung cancer cell line in its wild type (SW1573), and its variant overexpressing P-gp (Sw1573/Pgp). Moreover, compounds were tested in the presence and in the absence of verapamil, which is known to inhibit P-gp. Chemotherapeutic agents paclitaxel (PTX) and vinblastine (VB) are used herein as reference compounds. In this assay, the resistance factor (Rf) for a certain compound is defined as the ratio of GI50 in the cell line overexpressing P-gp and the wild one (Table 4), high values of Rf denoting that the compound behaves as a P-gp substrate, and thus, chemoresistance through this mechanism will probably take place.

The nature of series [2]: H2O2 scavenging (phenol red / horseradish peroxidase). Conditions: At 50 µM. The method, then:
(§4) In vitro antioxidant properties of key unprotected phenolic derivatives were analyzed using two different methodologies: free radical scavenging capacity, using the DPPH method (2,2-diphenyl-1-picrylhydrazyl), a HAT (hydrogen atom transfer) procedure, widely-used for both natural and synthetic derivatives, and also the capacity for scavenging H2O2, one of the most common ROS in degenerative diseases, including cancer.
Herein, following Bahorun’s methodology, in vitro levels of H2O2 were measured in an indirect fashion, by registering the H2O2-mediated oxidation of phenol red in the presence of horseradish peroxidase, to give a chromophore with a maximum absorption at 610 nm. Accordingly, in the presence of an antioxidant agent, there is an inverse correlation between the observed absorbance, and the scavenging properties. Table 2 depicts the H2O2-scavenging properties of compounds prepared herein, and tested at a final 50 µM concentration.
Reported methodology was used with minor modifications.

The subject of a further series is HeLa (cervix). The series can be described thus: Antiproliferative activity, NCI protocol. Format: cell-based, human. The method, then:
as §1, §2

The test system of another series is T-47D (breast). Kind of series: Antiproliferative activity, NCI protocol. Format: cell-based, human. The settings on record: Homo sapiens, T47D, read-out: GI50 T-47D (Breast). On the procedure: as §1, §2
The test system of series [3] is A549 (non-small cell lung). The series can be described thus: Antiproliferative activity, NCI protocol. It is filed as cell-based, human. The method, then: as §1, §2
The next series deals with WiDr (colon). The series can be described thus: Antiproliferative activity, NCI protocol. It is filed as cell-based, human. Conditions: Homo sapiens, WiDr, read-out: GI50 WiDr (Colon). The method, then:
as §1, §2

The subject of series [4] is SW1573 (non-small cell lung). The series can be described thus: Antiproliferative activity, NCI protocol. Format: cell-based, human. Conditions: Homo sapiens. The method, then: as §1, §2
A further series has as its system HBL-100 (breast). Kind of series: Antiproliferative activity, NCI protocol. Format: cell-based, human. On the procedure:
as §1, §2

For another series, the system named is SW1573/Pgp. The series can be described thus: P-glycoprotein assay, line overexpressing P-gp. Format: cell-based, human. Conditions: ratio between GI50 values in SW1573/PGP and SW1573 cells; for Rf w Verapamil: with verapamil; for Rf w/o Verapamil: without verapamil. The method, then: as §3
Series [5] is described as follows: P-glycoprotein assay, line overexpressing P-gp. Format: cell-based, human. The settings on record: human, 48 h exposure. The method, then: as §3
Series [6] in a line: Free radical scavenging (DPPH method). The settings on record: 30 min incubation, absorbance at 515 nm; for EC50: read-out: EC50 antiradical activity (DPPH). The method, then: as §4
DPPH is a commercially-available stable free radical commonly used for in vitro testing of radical scavenging properties of antioxidants.
Reported methodology was used with minor modifications. To a 60 µM methanolic DPPH solution (1.17 mL), the antioxidant solution (5–7 different solutions, 30 µL) or solvent (control, 30 µL) were added. After 30 min. of incubation in the dark, absorbance was measured at 515 nm, and EC50 values were calculated.
For orientation: DPPH is a stable violet radical that fades when it is reduced.

Where [7] appears, read: summary over the tested tumour cell lines, highest tested concentration 100 µM.
[8] abbreviates: with verapamil, read-out: GI50 SW153 w Verapamil.
The mark [9] stands for this setting: without verapamil, read-out: GI50 SW1573 w/o Verapamil.
Where [10] appears, read: Homo sapiens, HeLa; read-out: GI50 HeLa (Cervix).
The mark [11] stands for this setting: Homo sapiens, A549; read-out: GI50 A549 (Lung).
[12] abbreviates: SW1573, Table S1, read-out: GI50 SW1573 (Lung).
Where [13] appears, read: Homo sapiens, HBL-100; read-out: GI50 HBL-100 (Breast).
Setting [14] is: with verapamil (concentration not stated), with verapamil, read-out: GI50 SW1573/PGP w Verapamil.
Setting [15] is: without verapamil, read-out: GI50 SW1573/PGP w/o Verapamil.

In the case of `c1cc2c(cc1C[Se][Se]Cc1ccc3c(c1)OCO3)OCO2` [Compound 39, Bis[(3’, 4’-methylenedioxyphenyl)methyl]diselenide], the GI50 in the series with BJ-hTert (fibroblasts) (non-tumour cell line) came out at 3.9 ± 1 µM; in the series on SW1573 (setting [8]), 2.5 ± 0.1 µM; with SW1573 (setting [9]) it was 3 ± 0.5 µM; in the series on HeLa (cervix) (setting [10]) it was 2.4 ± 1.4 µM; in the series with T-47D (breast) (drug resistant line) it was 2.9 ± 0.4 µM; in series [3] (setting [11]), 1.2 ± 0.3 µM. For the same compound, the GI50 in the series on WiDr (colon) (drug resistant line) was found to be 1.6 ± 0.3 µM; in [4] (setting [12]), 3.2 ± 0.9 µM; in the series with HBL-100 (breast) (setting [13]), 2.9 ± 0.6 µM. Moreover, the “GI50 over the tumour cell lines (range, bound or words)” value in series [1] (setting [7]) was “low micromolar‒submicromolar activities”. In addition, in [2], the “% Scavenging of H2O2” value was “complete loss of ROS scavenging properties and ---”. For the same compound, the “Rf w Verapamil” value in the series with SW1573/Pgp is reported as 2.0. Further, the “Rf w/o Verapamil” value with SW1573/Pgp is on record as 6.0. The GI50 at 48 h worked out at 5.1 ± 0.4 µM in series [5] (setting [14]) and 18 ± 0.1 µM in [5] (setting [15]). Moreover, the “EC50 antiradical activity (DPPH)” value in series [6] was “complete impairment of activity”. Further, the EC50 (usually the concentration at which the effect is half-maximal) in series [6] is greater than 250 µM.
Turning to `O=C(CCC[Se][Se]CCCC(=O)NCCc1ccc2c(c1)OCO2)NCCc1ccc2c(c1)OCO2` [Compound 46, 4,4’-Diselenobis{N-[2′’-(3′’’,4′’’-Methylenedioxyphenyl)ethyl]butanamide}], the GI50 is 1 ± 0.1 µM in the series with BJ-hTert (fibroblasts); 0.12 to 0.3 µM in series [1]; 0.12 ± 0.01 µM in the series with HeLa (cervix) (Homo sapiens, HeLa, read-out: GI50 HeLa (Cervix)); 0.19 ± 0.04 µM with T-47D (breast); 0.27 ± 0.02 µM in [3] (Homo sapiens, A549, read-out: GI50 A549 (Lung)); 0.25 ± 0.06 µM in the series with WiDr (colon). Also, the GI50 in series [4] (SW1573, read-out: GI50 SW1573 (Lung)) was 0.3 ± 0.03 µM; in the series on HBL-100 (breast) (Homo sapiens, HBL-100, read-out: GI50 HBL-100 (Breast)), 0.25 ± 0.02 µM. Moreover, the “fold improvement of potency against tumour cell lines compared to 16” value in series [1] (46 (acetal) versus 16 (free catechol)) is “up to 30 fold”. Moreover, the “fold increase in activity compared to CDDP” value in [1] (multidrug resistant cell lines (T-47D, WiDr)) was no more than 104 fold. Moreover, in series [2], the “% Scavenging of H2O2” value was “complete loss of ROS scavenging properties and ---”. Moreover, the “EC50 antiradical activity (DPPH)” value in series [6] was “complete impairment of activity”. Also, the EC50 in series [6] is greater than 250 µM.
For the compound `O=C(CCC[Se][Se]CCCC(=O)NCCc1ccc(O)c(O)c1)NCCc1ccc(O)c(O)c1` [Compound 16, 4,4′-Diselenobis{N-[2′’-(3′’’,4′’’-dihydroxyphenyl)ethyl]butanamide}], the GI50 was 3.5 ± 0.6 µM with BJ-hTert (fibroblasts) (non-tumour cell line); less than 6 µM in [1] (setting [7]); 2.3 ± 0.3 µM in the series with SW1573 (setting [8]); 2.7 ± 0.3 µM with SW1573 (setting [9]); 2.3 ± 0.4 µM with HeLa (cervix) (setting [10]); 5.8 ± 0.9 µM in the series with T-47D (breast) (drug resistant line). The GI50 is 3.7 ± 0.6 µM in [3] (setting [11]), 3.9 ± 0.6 µM in the series on WiDr (colon) (drug resistant line), 3 ± 0.2 µM in [4] (setting [12]) and 2.4 ± 0.6 µM with HBL-100 (breast) (setting [13]). Also, the “Rf w Verapamil” value in the series with SW1573/Pgp is 2.2. The “Rf w/o Verapamil” value in the series on SW1573/Pgp amounted to 1.9. The GI50 at 48 h is 5.1 ± 0.4 µM in series [5] (setting [14]) and 5.1 ± 0.6 µM in series [5] (setting [15]). The EC50 in series [6] is 9.3 ± 1.3 µM.
Regarding `N#C[Se]CCc1ccc2c(c1)OCO2` [Compound 36, 2-(3′,4′-Methylendioxyphenyl)ethyl selenocyanate], the GI50 in the series with BJ-hTert (fibroblasts) (non-tumour cell line) was determined as 14 ± 2 µM; with SW1573 (setting [8]) it was 3.1 ± 0.4 µM; in the series with SW1573 (setting [9]) it was 4.2 ± 0.7 µM; with HeLa (cervix) (setting [10]), 1.2 ± 0.2 µM; in the series with T-47D (breast) (drug resistant line) it was 1.1 ± 0.3 µM; in series [3] (setting [11]), 1.8 ± 0.7 µM. The GI50 was found to be 1.3 ± 0.6 µM in the series on WiDr (colon) (drug resistant line), 3.8 ± 0.1 µM in series [4] (setting [12]) and 2.1 ± 0.2 µM with HBL-100 (breast) (setting [13]). Also, the “GI50 over the tumour cell lines (range, bound or words)” value in series [1] (setting [7]) is “low micromolar‒submicromolar activities”. In addition, the “Rf w Verapamil” value in the series on SW1573/Pgp worked out at 1.7. Besides, the “Rf w/o Verapamil” value with SW1573/Pgp stood at 1.6. Besides, the figures for the GI50 at 48 h in [5] (setting [14]) and in [5] (setting [15]) were 5.3 ± 0.6 µM and 6.8 ± 0.4 µM, respectively.
Consider `N#C[Se]Cc1ccc2c(c1)OCO2` [Compound 35, (3′,4′-Methylenedioxyphenyl)methyl selenocyanate], for which the GI50 in the series on BJ-hTert (fibroblasts) (non-tumour cell line) turned out to be 8.7 ± 3.2 µM; in the series on SW1573 (setting [8]) it was 3.1 ± 1 µM; in the series on SW1573 (setting [9]), 2.3 ± 0.5 µM; in the series on HeLa (cervix) (setting [10]) it was 3.5 ± 0.8 µM; in the series with T-47D (breast) (drug resistant line), 3.4 ± 0.2 µM; in series [3] (setting [11]) it was 3.1 ± 0.7 µM. For the same compound, the GI50 with WiDr (colon) (drug resistant line) stood at 2 ± 0.1 µM; in series [4] (setting [12]) it was 4.4 ± 0.5 µM; in the series on HBL-100 (breast) (setting [13]), 3.5 ± 1.4 µM. Further, the “GI50 over the tumour cell lines (range, bound or words)” value in [1] (setting [7]) is recorded as “low micromolar‒submicromolar activities”. Also, in the series with SW1573/Pgp, the “Rf w Verapamil” value was found to be 2.3. In addition, the “Rf w/o Verapamil” value in the series on SW1573/Pgp is listed as 3.1. The results for the GI50 at 48 h in [5] (setting [14]) and in [5] (setting [15]) were 7 ± 0.6 µM and 7.1 ± 0.6 µM, respectively.
